Source: article PMC6348443 (Journal of Medicinal Chemistry, 2018)
Where a name gives a salt, the structure may show the parent alone. Read-outs that look alike come from different tables or passages of the source.

Experiments:
MOR [1] = molecular target: T1, MOR (Homo sapiens, UniProt P35372); experiment: [35S]GTPγS binding assay, CHO-hMOR membranes; assay type: biochemical; conditions: for Emax: relative to reference full agonist DAMGO, read-out: MOR % stim.
T1 construct: host or cells: CHO (CHO-hMOR)
Procedure: (§1) Efficacies are presented as percentage stimulation relative to the standard full agonists, [D-Ala^2,N-Me-Phe4,Gly-ol^5]enkephalin (DAMGO for MOR),[53] [D-Pen^2,D-Pen^5]enkephalin (DPDPE for DOR)[54] and N-methyl-2-phenyl-N-[(5R,7S,8S)-7-(pyrrolidin-1-yl)-1-oxaspiro[4.5]dec-8-yl]acetamide (U69,593 for KOR).[55]
(§2) Membranes from CHO cells expressing human opioid receptors were prepared in 50 mM Tris-HCl buffer (pH 7.7) according to a previously described procedure.[64] Cells expressing human opioid receptors grown at confluence were removed from the culture plates by scraping, homogenized in 50 mM Tris buffer (pH 7.7), using a Polytron homogenizer, then centrifuged once and washed by an additional centrifugation at 27 000g for 15 min, at 4 °C. The final pellet was resuspended in Tris buffer and stored at −80 °C until use. Protein content of brain and cell membrane preparation homogenates was determined by the method of Bradford using bovine serum albumin as the standard.[65]
(§3) Binding of [^35S]GTPγS to membranes from CHO cells stably expressing the human opioid receptors was conducted according to the published procedures.[49],[64] Cell membranes (5–10 μg) in 20 mM HEPES, 10 mM MgCl2, and 100 mM NaCl (pH 7.4) were incubated with 0.05 nM [^35S]GTPγS, 10 μM GDP, and various concentrations of test compound in a final volume of 1 mL, for 60 min at 25 °C. Nonspecific binding was determined using 10 μM GTPγS, and the basal binding was determined in the absence of test ligand. Samples are filtered over glass Whatman glass GF/B fiber filters and counted as described for binding assays. All experiments were performed in duplicate and repeated at least three times.
(§4) Data were analyzed and graphically processed using the GraphPad Prism 5.0 Software (GraphPad Prism Software Inc., San Diego, CA). For in vitro assays, inhibition constant (Ki in nM), potency (EC50 in nM), and efficacy (% stimulation) values were determined from concentration–response curves by nonlinear regression analysis. The Ki values were determined by the method of Cheng and Prusoff.[66] In the [^35S]GTPγS binding assays, efficacy was determined relative to the reference full opioid agonists, DAMGO (MOR), DPDPE (DOR), and U69,593 (KOR). In vitro data are presented as mean ± SEM of three to four independent experiments each performed in duplicate. […] Each experimental group included six to seven mice. Data were statistically evaluated using one-way ANOVA with Tukey’s post hoc test for multiple comparisons with significance set at P < 0.05.

KOR [2] = molecular target: T2, KOR (Cavia porcellus, UniProt P41144); experiment: competition radioligand binding, guinea-pig brain membranes, [3H]U69,593; conditions: guinea-pig brain membranes; read-out: opioid receptor binding Ki KOR
T2 construct: Membranes were prepared from Sprague-Dawley rat brains or guinea-pig brains according to the described procedures; tissue Labortierkunde und Laborgenetik, Medizinische Universität Wien; host or cells: guinea-pig brain without cerebella
Procedure: (§5) Competition binding assays using rat brain (MOR and DOR) and guinea-pig brain (KOR) membranes (Table 1) were performed according to published procedures.[44],[49] […] In addition, we have assessed binding at the human opioid receptors stably transfected in Chinese hamster ovary (CHO) cells (Table S1).
(§6) Membranes were prepared from Sprague-Dawley rat brains or guinea-pig brains according to the described procedures.[44],[45] Brains without cerebella were homogenized on ice in 5 vol/wt of ice-cold 50 mM Tris-HCl buffer (pH 7.4) and diluted in 30 vol/wt of the same buffer. After centrifugation at 40 000g for 20 min at 4 °C, the pellets were resuspended in 30 vol/wt of 50 mM Tris-HCl buffer (pH 7.4) and incubated at 37 °C for 30 min. The centrifugation step described above was repeated, and the final pellets were resuspended in 5 vol/wt of 50 mM Tris-HCl buffer (pH 7.4) containing 0.32 M sucrose and stored at −80 °C until use.
(§7) Rat brain membranes were incubated with either [^3H]DAMGO (1 nM, 45 min, 35 °C) or [^3H][Ile^5,6]deltorphin II (0.5 nM, 45 min, 35 °C) for labeling MOR or DOR receptors, respectively. Guinea-pig brain membranes were incubated with [^3H]U69,593 (1 nM, 30 min, 30 °C) for labeling KOR. Binding assays with CHO cell membranes were conducted at 25 °C for 60 min using [^3H]DAMGO (1 nM) or [^3H]diprenorphine (0.2 nM) for labeling MOR or DOR, respectively. Nonspecific binding was determined using 10 μM naloxone (rodent brain) or 1–10 μM of the unlabeled counterpart of each radioligand (CHO cells). Reactions were terminated by rapid filtration through Whatman glass fiber GF/C filters. Filters were washed three times with 5 mL of ice-cold 50 mM Tris-HCl buffer (pH 7.4) using a Brandel M24R cell harvester (Gaithersburg, MD). Radioactivity retained on the filters was counted by liquid scintillation counting using a Beckman Coulter LS6500 (Beckman Coulter Inc., Fullerton, CA). All binding experiments were performed in duplicate and repeated at least three times.
as §4

MOR [3] = molecular target: T3, MOR (Rattus norvegicus, UniProt P33535); experiment: competition radioligand binding, rat brain membranes, [3H]DAMGO; conditions: rat brain membranes; read-out: opioid receptor binding Ki MOR
T3 construct: Membranes were prepared from Sprague-Dawley rat brains or guinea-pig brains according to the described procedures; tissue Labortierkunde und Laborgenetik, Medizinische Universität Wien; host or cells: Sprague-Dawley rat brain without cerebella
Procedure: as §5, §6, §7, §4

DOR [4] = molecular target: T4, DOR (Rattus norvegicus, UniProt P33533); experiment: competition radioligand binding, rat brain membranes, [3H][Ile5,6]deltorphin II; conditions: rat brain membranes; read-out: opioid receptor binding Ki DOR
T4 construct: Membranes were prepared from Sprague-Dawley rat brains or guinea-pig brains according to the described procedures; tissue Labortierkunde und Laborgenetik, Medizinische Universität Wien; host or cells: Sprague-Dawley rat brain without cerebella
Procedure: as §5, §6, §7, §4

KOR [5] = molecular target: T5, KOR (Homo sapiens, UniProt P41145); experiment: [35S]GTPγS binding assay, CHO-hKOR membranes; assay type: biochemical; conditions: for EC50: [35S]GTPγS, CHO human KOR membranes, read-out: KOR EC50; for functional profile at KOR (full/partial agonist): partial agonist <85% of the response to U69,593; for Emax: relative to reference full agonist U69,593, read-out: KOR % stim.
T5 construct: host or cells: CHO (CHO-hKOR)
Procedure: as §1, §2, §3, §4

DOR [6] = molecular target: T6, DOR (Homo sapiens, UniProt P41143); experiment: [35S]GTPγS binding assay, CHO-hDOR membranes; assay type: biochemical; conditions: for increased agonist potency at DOR vs MOR: [35S]GTPγS EC50; for EC50: [35S]GTPγS, CHO human DOR membranes; for Emax: relative to reference full agonist DPDPE, read-out: DOR % stim.
T6 construct: host or cells: CHO (CHO-hDOR)
Procedure: as §1, §2, §3, §4

male CD1 mice = experiment: acetic acid-induced writhing assay after sc administration; assay type: in vivo, mouse; conditions: for ED50 (95% CI): mice, inhibition of writhing 30 min after drug administration; for ED50: Mus musculus, 0.5 h, read-out: ED50 (95% CI), mice, sc, inhibition of writhing 30 min after drug administration
Procedure: Solutions of test compounds were prepared in sterile physiological 0.9% saline and further diluted to working doses in saline solution. Test compounds or saline (control) were administered by sc route in a volume of 10 μL/1 g of body weight. All doses are expressed in terms of salts. Separate groups of mice received the respective dose of compound, and individual mice were only used once for behavioral testing.
Writhing was induced in male CD1 mice by ip injection of a 0.6% acetic acid aqueous solution as described previously.[48],[62] Groups of mice were administered sc different doses of test compound or saline (control), and 5 min prior to testing (25 min after drug or saline), each animal received an ip injection of acetic acid solution. Each mouse was placed in individual transparent Plexiglas chambers, and the number of writhes was counted during a 10 min observation period. […] For the antagonism study, naloxone methiodide was sc co-administered with the respective opioid agonist, and writhing was assessed as described above.
as §4

[7] = [35S]GTPγS, CHO human MOR membranes, read-out: MOR EC50

Compound | EC50 (MOR [1]; [7]) [nM] | Emax (MOR [1]) [%] | Ki (KOR [2]) [nM] | Ki (MOR [3]) [nM] | Ki (DOR [4]) [nM] | EC50 (KOR [5]) [nM] | functional profile at KOR (full/partial agonist) (KOR [5]) | Emax (KOR [5]) [%] | increased agonist potency at DOR vs MOR (DOR [6]) | EC50 (DOR [6]) [nM] | Emax (DOR [6]) [%] | ED50 (95% CI) (male CD1 mice) | ED50 (male CD1 mice) [mg/kg] | EC50 (MOR [1]) [nM]
CO[C@@]12CC[C@@H](NCCCC(=O)O)[C@@H]3Oc4c(O)ccc5c4[C@@]31CCN(C)[C@@H]2C5 [Compound 21b] | 12.3 ± 6.8 | 86 ± 7 | 147 ± 13 | 1.41 ± 0.13 | 6.61 ± 0.67 | 3400 ± 1980 | full agonists | 74 ± 5 | 2–4 times | 6.06 ± 1.07 | 103 ± 6 |  |  | 
CO[C@@]12CC[C@@H](N[C@@H](Cc3ccc(O)cc3)C(=O)O)[C@@H]3Oc4c(O)ccc5c4[C@@]31CCN(C)[C@@H]2C5.Cl.Cl [Compound 9b, (2S)-2-[(4,5α-Epoxy-3-hydroxy-14β-methoxy-17-methylmorphinan-6β-yl)amino]-3-(4-hydroxyphenyl)propionic Acid Dihydrochloride] | 24.7 ± 9.8 | 93 ± 7 | 186 ± 33 | 3.2 ± 0.55 | 3.89 ± 0.64 | 774 ± 57 |  | 60 ± 3 | 2–4 times | 6.23 ± 1.03 | 95 ± 0.8 |  |  | 
CO[C@@]12CC[C@@H](N[C@@H](CCC(N)=O)C(=O)O)[C@@H]3Oc4c(O)ccc5c4[C@@]31CCN(C)[C@@H]2C5.Cl.Cl [Compound 12b, (2S)-4-Carbamoyl-2-[(4,5α-epoxy-3-hydroxy-14β-methoxy-17-methylmorphinan-6β-yl)amino]butanoic Acid Dihydrochloride] | 9.54 ± 1.15 | 98 ± 4 |  |  |  | 1410 ± 418 |  | 63 ± 17 | 2–4 times | 3.96 ± 0.07 | 103 ± 9 |  |  | 
CO[C@@]12CC[C@H](N[C@@H](CCC(N)=O)C(=O)O)[C@@H]3Oc4c(O)ccc5c4[C@@]31CCN(C)[C@@H]2C5 [Compound 12a, (2S)-4-Carbamoyl-2-[(4,5α-epoxy-3-hydroxy-14β-methoxy-17-methylmorphinan-6α-yl)amino]butanoic Acid Dihydrochloride] | 2.27 ± 0.11 | 90 ± 8 |  |  |  | 185 ± 30 |  | 70 ± 3 |  | 7.8 ± 3.61 | 104 ± 10 |  |  | 
CN1CC[C@]23c4c5ccc(O)c4O[C@H]2[C@@H](O)C=C[C@H]3[C@H]1C5 [morphine, reference compound] |  |  |  |  |  |  |  |  |  |  |  | 437 (249–768) μg/kg |  | 
CN1CC[C@]23c4c5ccc(O)c4O[C@H]2[C@@H](NCC(=O)O)CC[C@@]3(OCCCc2ccccc2)[C@H]1C5 [Compound 5a] |  |  |  |  |  |  |  |  |  |  |  |  | 0.0361 | 
CN1CC[C@]23c4c5ccc(O)c4O[C@H]2[C@H](NCC(=O)O)CC[C@@]3(OCCCc2ccccc2)[C@H]1C5 [Compound 5b] |  |  |  |  |  |  |  |  |  |  |  |  | 0.0416 | 
CO[C@@]12CC[C@@H](N[C@@H](CO)C(=O)O)[C@@H]3Oc4c(O)ccc5c4[C@@]31CCN(C)[C@@H]2C5 [Compound 6b, (2S)-2-[(4,5α-Epoxy-3-hydroxy-14β-methoxy-17-methylmorphinan-6β-yl)amino]-3-hydroxypropionic Acid Dihydrochloride] | 3.56 ± 0.76 | 101 ± 9 |  |  |  | 201 ± 116 | full agonists | 88 ± 2 |  | 6.98 ± 4.24 | 98 ± 1 |  |  | 
CO[C@@]12CCC(=O)[C@@H]3Oc4c(O)ccc5c4[C@@]31CCN(C)[C@@H]2C5 [Compound 1, 14-O-methyloxymorphone, reference compound] |  |  |  |  |  | 116 ± 31 |  | 77 ± 5 |  | 37.3 ± 8.5 | 106 ± 1 |  | 0.00326 | 
CO[C@@]12CC[C@@H](N[C@@H](CC(N)=O)C(=O)O)[C@@H]3Oc4c(O)ccc5c4[C@@]31CCN(C)[C@@H]2C5 [Compound 11b, (2S)-3-Carbamoyl-2-[(4,5α-epoxy-3-hydroxy-14β-methoxy-17-methylmorphinan-6β-yl)amino]propionic Acid Dihydrochloride] | 2.04 ± 0.44 | 96 ± 14 |  |  |  | 923 ± 11 |  | 71 ± 9 |  | 3.18 ± 0.93 | 88 ± 5 |  |  | 
CO[C@@]12CC[C@H](N[C@@H](CC(N)=O)C(=O)O)[C@@H]3Oc4c(O)ccc5c4[C@@]31CCN(C)[C@@H]2C5 [Compound 11a, (2S)-3-Carbamoyl-2-[(4,5α-epoxy-3-hydroxy-14β-methoxy-17-methylmorphinan-6α-yl)amino]propionic Acid Dihydrochloride] | 0.83 ± 0.17 | 99 ± 0.2 |  |  |  | 81.7 ± 12.3 |  | 67 ± 12 |  | 9.78 ± 3.32 | 106 ± 6 | 15.2 (6.89–33.3) μg/kg | < 0.02 | < 1
CO[C@@]12CC[C@H](N[C@@H](CO)C(=O)O)[C@@H]3Oc4c(O)ccc5c4[C@@]31CCN(C)[C@@H]2C5 [Compound 6a, (2S)-2-[(4,5α-Epoxy-3-hydroxy-14β-methoxy-17-methylmorphinan-6α-yl)amino]-3-hydroxypropionic Acid Dihydrochloride] | 1.6 ± 0.59 | 87 ± 5 |  |  |  | 1210 ± 200 |  | 44 ± 5.2 |  | 13.9 ± 1.5 | 101 ± 2 |  | 0.0321 | 
